In US20040082589A1, “Quinoline derivatives as nk-3 and nk-2 antagonists” (priority 2000, published 2004) one finds melting point data, which are given here for 15 compounds.

Structures are written as SMILES.

The term melting point denotes the temperature of the solid-liquid transition. `C[C@H](NC(=O)c1c(CN2CCN(C=O)CC2)c(-c2ccccc2)nc2ccccc12)C1CCCCC1` [Example 18, 3-(4-Formyl-piperazin-1-ylmethyl)-2-phenyl-quinoline-4-carboxylic acid ((S)-1-cyclohexyl-ethyl)-amide] had a melting point of 116 to 119 °C.

Turning to `C[C@H](NC(=O)c1c(CN2CCN(C(=O)c3nccnc3C(=O)O)CC2)c(-c2ccccc2)nc2ccccc12)C1CCCCC1` [Example 12, 3-(1-{4-[4-((S)-1-Cyclohexyl-ethylcarbamoyl)-2-phenyl-quinolin-3-ylmethyl]-piperazin-1-yl}-methanoyl)-pyrazine-2-carboxylic acid], the melting point was in the range of 162 to 165 °C.

For `C[C@H](NC(=O)c1c(CN2CCN(C(=O)CC(C)(C)CC(=O)O)CC2)c(-c2ccccc2)nc2ccccc12)c1ccccc1` [Example 6, 3,3-Dimethyl-5-oxo-5-{4-[2-phenyl-4-((S)-1-phenyl-ethylcarbamoyl)-quinolin-3-ylmethyl]-piperazin-1-yl}-pentanoic acid], the melting point is 213 to 215 °C.

`CCOC(=O)C(C(=O)N1CCN(Cc2c(-c3ccccc3)nc3ccccc3c2C(=O)N[C@@H](C)C2CCCCC2)CC1)c1ccccc1` (stereo partly drawn) [Example 16, 3-{4-[4-((S)-1-Cyclohexyl-ethylcarbamoyl)-2-phenyl-quinolin-3-ylmethyl]-piperazin-1-yl}-3-oxo-2-phenyl-propionic acid ethyl ester] gave a melting point of 125 to 129 °C.

With `C[C@H](NC(=O)c1c(CN2CCN(C(=O)c3cccc(C(=O)O)c3)CC2)c(-c2ccccc2)nc2ccccc12)C1CCCCC1` [Example 13, 3-(1-{4-[4-((S)-1-Cyclohexyl-ethylcarbamoyl)-2-phenyl-quinolin-3-ylmethyl]-piperazin-1-yl}-methanoyl)-benzoic acid], the melting point fell in the range of 179 to 180 °C.

In the case of `C[C@H](NC(=O)c1c(CN2CCN(C(=O)[C@H]3CCCC[C@H]3C(=O)O)CC2)c(-c2ccccc2)nc2ccccc12)c1ccccc1` (mixture of isomers) [Example 8, Cis 2-(1-{4-[2-Phenyl-4-((S)-1-phenyl-ethylcarbamoyl)-quinolin-3-ylmethyl]-piperazin-1-yl}-methanoyl)-cyclohexanecarboxylic acid], the melting point was in the range of 130 to 140 °C.

Turning to `C[C@H](NC(=O)c1c(CN2CCN(C(=O)CCN3CCCCC3)CC2)c(-c2ccccc2)nc2ccccc12)C1CCCCC1` [Example 24, 2-Phenyl-3-[4-(3-piperidin-1-yl-propanoyl)-piperazin-1-ylmethyl]-quinoline-4-carboxylic acid ((S)-1-cyclohexyl-ethyl)-amide], the melting point lay in the range of 120 to 122 °C.

Turning to `C[C@H](NC(=O)c1c(CN2CCN(C(=O)CC(=O)O)CC2)c(-c2ccccc2)nc2ccccc12)C1CCCCC1` [Example 10, 3-{4-[4-((S)-1-Cyclohexyl-ethylcarbamoyl)-2-phenyl-quinolin-3-ylmethyl]-piperazin-1-yl}-3-oxo-propionic acid], the melting point lay within 150 to 155 °C.

On to `CCNCCC(=O)N1CCN(Cc2c(-c3ccccc3)nc3ccccc3c2C(=O)N[C@@H](C)C2CCCCC2)CC1` [Example 22, 3-[4-(3-Ethylamino-propanoyl)-piperazin-1-ylmethyl]-2-phenyl-quinoline-4-carboxylic acid ((S)-1-cyclohexyl-ethyl)-amide], for which the melting point is 125 °C.

Take `C[C@H](NC(=O)c1c(CN2CCN(C(=O)c3cncc(C(=O)O)c3)CC2)c(-c2ccccc2)nc2ccccc12)C1CCCCC1` [Example 14, 5-(1-{4-[4-((S)-1-Cyclohexyl-ethylcarbamoyl)-2-phenyl-quinolin-3-ylmethyl]-piperazin-1-yl}-methanoyl)-nicotinic acid]: the melting point is 250 to 255 °C (dec.).

Take `C[C@H](NC(=O)c1c(CN2CCN(C(=O)/C=C/C(=O)O)CC2)c(-c2ccccc2)nc2ccccc12)c1ccccc1` [Example 9, (E)-4-Oxo-4-{4-[2-phenyl-4-((S)-1-phenyl-ethylcarbamoyl)-quinolin-3-ylmethyl]-piperazin-1-yl}-but-2-enoic acid]: the melting point fell in the range of 214 to 215 °C.

`C[C@H](NC(=O)c1c(CN2CCN(C(=O)[C@@H]3C[C@H]3C(=O)O)CC2)c(-c2ccccc2)nc2ccccc12)c1ccccc1` (mixture of isomers) [Example 7, Trans 2-(1-{4-[2-Phenyl-4-((S)-1-phenyl-ethylcarbamoyl)-quinolin-3-ylmethyl]-piperazin-1-yl}-methanoyl)-cyclopropanecarboxylic acid] returned a melting point of 135 to 145 °C.

In the case of `C[C@H](NC(=O)c1c(CN2CCN(C(=O)CCCC(=O)O)CC2)c(-c2ccccc2)nc2ccccc12)C1CCCCC1` [Example 11, 5-{4-[4-((S)-1-Cyclohexyl-ethylcarbamoyl)-2-phenyl-quinolin-3-ylmethyl]-piperazin-1-yl}-5-oxo-pentanoic acid], the melting point was in the range of 125 to 130 °C.

Regarding `C[C@H](NC(=O)c1c(CN2CCN(C(=O)c3ccc(C(=O)O)cc3)CC2)c(-c2ccccc2)nc2ccccc12)C1CCCCC1` [Example 15, 4-(1-{4-[4-((S)-1-Cyclohexyl-ethylcarbamoyl)-2-phenyl-quinolin-3-ylmethyl]-piperazin-1-yl}-methanoyl)-benzoic acid], the melting point fell in the range of 185 to 188 °C.

`C[C@H](NC(=O)c1c(CN2CCN(C(=O)CCN)CC2)c(-c2ccccc2)nc2ccccc12)C1CCCCC1` [Example 21, 3-[4-(3-Amino-propanoyl)-piperazin-1-ylmethyl]-2-phenyl-quinoline-4-carboxylic acid ((S)-1-cyclohexyl-ethyl)-amide] displayed a melting point of 164 to 166 °C.
